A short description of data set [1]: Stability in human plasma assessed as half life at 100 uM measured up to 120 mins by LC-MS/MS analysis. Type of data set: ADME, cell-free.
The nature of data set [2]: Cytotoxicity against human BEAS-2B cells assessed as inhibition of cell viability incubated for 48 hrs by CCK-8 assay. The data set is classed as toxicity, cell-based. (In general: Tetrazolium dyes change colour on reduction, which living cells bring about.)
A short description of data set [3]: Stability in human plasma assessed as compound remaining at 100 uM measured after 15 mins by LC-MS/MS analysis. The following applies: read-out: Stability. The data set is classed as ADME, cell-free.
Data set [4] concerns the target CYP2C9 (Homo sapiens, UniProt P11712). Description: Inhibition of CYP2C9 in human liver microsome at 10 uM pre-incubated with compound for 5 mins followed NADPH addition and measured after 10 mins by LC-MS/MS analysis relative to control. Type of data set: ADME. The following applies: liver microsomes, time 15 min.
For data set [5], the species on record is Homo sapiens. Put plainly: Selectivity index, ratio of IC50 for human recombinant CYP1A1 to IC50 for human recombinant CYP1B1 using 7-ethoxyresorufin as substrate.
Data set [6] concerns the target Cytochrome P450 3A4 (Homo sapiens, UniProt P08684). Put plainly: Inhibition of CYP3A4 in human liver microsome pre-incubated with compound for 5 mins followed NADPH addition and measured after 5 mins by LC-MS/MS analysis. The data set is classed as ADME, microsomes. (In general: Microsomes from liver hold many membrane-bound enzymes, among them those of drug oxidation.)

Data set [7] in a line: Metabolic stability in liver microsomes (unknown origin) assessed as compound remaining at 0.5 mg/ml measured after 5 mins in presence of NADPH regenerating system by LC-MS/MS analysis relative to control. The following applies: read-out: Stability. Type of data set: ADME, Microsome.
The target in data set [8] is CYP3A4 (Homo sapiens, UniProt P08684). Description: Inhibition of CYP3A4 in human liver microsome at 10 uM pre-incubated with compound for 5 mins followed NADPH addition and measured after 5 mins by LC-MS/MS analysis relative to control. The data set is classed as ADME. To be noted: liver microsomes, time 10 min.
The nature of data set [9]: Metabolic stability in liver microsomes (unknown origin) assessed as compound remaining at 0.5 mg/ml measured after 60 mins in presence of NADPH regenerating system by LC-MS/MS analysis relative to control. The data set is classed as ADME, Microsome. The following applies: read-out: Stability.
The species entered for data set [10] is Homo sapiens. Description: Selectivity index, ratio of IC50 for human recombinant CYP1A2 to IC50 for human recombinant CYP1B1 using 7-ethoxyresorufin as substrate.
Data set [11] in a line: Metabolic stability in liver microsomes (unknown origin) assessed as compound remaining at 0.5 mg/ml measured after 15 mins in presence of NADPH regenerating system by LC-MS/MS analysis relative to control. Type of data set: ADME, Microsome. The following applies: read-out: Stability.
A short description of data set [12]: Stability in human plasma assessed as compound remaining at 100 uM measured immediately by LC-MS/MS analysis. The following applies: read-out: Stability. The data set is classed as ADME, cell-free.
Data set [13] addresses CYP2C19 (Homo sapiens, UniProt P33261). Description: Inhibition of CYP2C19 in human liver microsome at 10 uM pre-incubated with compound for 5 mins followed NADPH addition and measured after 30 mins by LC-MS/MS analysis relative to control. The data set is classed as ADME. The following applies: liver microsomes, time 35 min.
The nature of data set [14]: Stability in human plasma assessed as compound remaining at 100 uM measured after 120 mins by LC-MS/MS analysis. Type of data set: ADME, cell-free. The following applies: read-out: Stability.
The nature of data set [15]: Stability in human plasma assessed as compound remaining at 100 uM measured after 60 mins by LC-MS/MS analysis. Type of data set: ADME, cell-free. The following applies: read-out: Stability.
The nature of data set [16]: Stability in human plasma assessed as compound remaining at 100 uM measured after 5 mins by LC-MS/MS analysis. To be noted: read-out: Stability. The data set is classed as ADME, cell-free.
In data set [17] the test system is A549/TR. Description: Reversal of drug resistance in human A549/Taxol cells assessed as increase in paclitaxel-induced cytotoxicity incubated for 48 hrs by CCK-8 assay. The following applies: dose 2.5-10 µM. Type of data set: functional, cell-based.
Data set [18] in a line: Stability in human plasma assessed as compound remaining at 100 uM measured after 30 mins by LC-MS/MS analysis. To be noted: read-out: Stability. Type of data set: ADME, cell-free.
Data set [19] in a line: Cytotoxicity against HUVEC assessed as inhibition of cell viability incubated for 48 hrs by CellTiter Glo assay. Type of data set: toxicity, cell-based. The following applies: human, HUVEC cells. (ATP-based viability assays read luminescence as a measure of living cells.)
Data set [20] can be described thus: Metabolic stability in liver microsomes (unknown origin) assessed as compound remaining at 0.5 mg/ml measured after 30 mins in presence of NADPH regenerating system by LC-MS/MS analysis relative to control. Type of data set: ADME, Microsome. The following applies: read-out: Stability.
Data set [21] deals with T1, Cytochrome P450 1B1 (Homo sapiens, UniProt Q16678).
T1 sequence (Q16678 whole entry): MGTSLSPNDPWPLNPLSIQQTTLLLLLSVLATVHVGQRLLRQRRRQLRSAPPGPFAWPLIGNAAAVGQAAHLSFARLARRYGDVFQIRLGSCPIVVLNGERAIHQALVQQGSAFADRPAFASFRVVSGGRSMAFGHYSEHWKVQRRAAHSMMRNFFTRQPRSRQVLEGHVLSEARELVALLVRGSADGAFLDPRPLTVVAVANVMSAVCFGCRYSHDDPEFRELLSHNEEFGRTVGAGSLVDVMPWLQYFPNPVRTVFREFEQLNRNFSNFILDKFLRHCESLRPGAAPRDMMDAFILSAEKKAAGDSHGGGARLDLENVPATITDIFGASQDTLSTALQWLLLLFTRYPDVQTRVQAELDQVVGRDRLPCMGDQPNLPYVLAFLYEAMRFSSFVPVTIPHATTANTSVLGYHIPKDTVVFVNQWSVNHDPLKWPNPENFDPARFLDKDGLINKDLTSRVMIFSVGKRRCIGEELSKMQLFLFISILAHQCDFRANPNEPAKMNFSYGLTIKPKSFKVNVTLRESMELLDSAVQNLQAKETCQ
Description: Inhibition of human recombinant CYP1B1 using 7-ethoxyresorufin as substrate incubated under dark condition for 30 mins in presence of NADPH by EROD fluorescence assay. The data set is classed as ADME.

Data set [22] concerns the target T2, CYP2C8 (Homo sapiens, UniProt P10632).
T2 sequence (P10632 whole entry): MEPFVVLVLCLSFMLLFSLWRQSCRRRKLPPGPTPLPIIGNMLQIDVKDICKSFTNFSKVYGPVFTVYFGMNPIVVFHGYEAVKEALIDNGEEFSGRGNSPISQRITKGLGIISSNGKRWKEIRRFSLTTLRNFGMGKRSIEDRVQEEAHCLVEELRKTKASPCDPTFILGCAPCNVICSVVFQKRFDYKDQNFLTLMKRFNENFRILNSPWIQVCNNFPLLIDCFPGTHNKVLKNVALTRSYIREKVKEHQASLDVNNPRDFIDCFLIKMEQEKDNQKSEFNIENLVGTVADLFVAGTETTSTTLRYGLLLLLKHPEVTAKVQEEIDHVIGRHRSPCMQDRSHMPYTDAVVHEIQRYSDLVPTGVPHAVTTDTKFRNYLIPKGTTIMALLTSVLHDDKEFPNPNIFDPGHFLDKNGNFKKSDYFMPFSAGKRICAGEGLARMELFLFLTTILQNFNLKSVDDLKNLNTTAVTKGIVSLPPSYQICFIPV
Description: Inhibition of CYP2C8 in human liver microsome at 10 uM pre-incubated with compound for 5 mins followed NADPH addition and measured after 5 mins by LC-MS/MS analysis relative to control. Type of data set: ADME. To be noted: liver microsomes, time 10 min.

CYP2C19, sequence (P33261 whole entry): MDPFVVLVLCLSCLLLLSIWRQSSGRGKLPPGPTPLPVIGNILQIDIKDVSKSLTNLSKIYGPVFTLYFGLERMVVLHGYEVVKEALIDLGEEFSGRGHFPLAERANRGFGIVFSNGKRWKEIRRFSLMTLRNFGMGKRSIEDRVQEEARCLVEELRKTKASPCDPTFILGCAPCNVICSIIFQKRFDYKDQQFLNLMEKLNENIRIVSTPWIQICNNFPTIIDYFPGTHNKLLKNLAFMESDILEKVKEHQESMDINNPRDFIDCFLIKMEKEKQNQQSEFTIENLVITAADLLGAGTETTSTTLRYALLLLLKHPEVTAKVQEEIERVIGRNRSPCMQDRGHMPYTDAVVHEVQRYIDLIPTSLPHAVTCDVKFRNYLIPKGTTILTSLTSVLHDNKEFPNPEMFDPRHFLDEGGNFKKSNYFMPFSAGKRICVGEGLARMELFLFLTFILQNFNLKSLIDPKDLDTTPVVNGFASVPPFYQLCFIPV
Cytochrome P450 3A4, sequence (P08684 whole entry): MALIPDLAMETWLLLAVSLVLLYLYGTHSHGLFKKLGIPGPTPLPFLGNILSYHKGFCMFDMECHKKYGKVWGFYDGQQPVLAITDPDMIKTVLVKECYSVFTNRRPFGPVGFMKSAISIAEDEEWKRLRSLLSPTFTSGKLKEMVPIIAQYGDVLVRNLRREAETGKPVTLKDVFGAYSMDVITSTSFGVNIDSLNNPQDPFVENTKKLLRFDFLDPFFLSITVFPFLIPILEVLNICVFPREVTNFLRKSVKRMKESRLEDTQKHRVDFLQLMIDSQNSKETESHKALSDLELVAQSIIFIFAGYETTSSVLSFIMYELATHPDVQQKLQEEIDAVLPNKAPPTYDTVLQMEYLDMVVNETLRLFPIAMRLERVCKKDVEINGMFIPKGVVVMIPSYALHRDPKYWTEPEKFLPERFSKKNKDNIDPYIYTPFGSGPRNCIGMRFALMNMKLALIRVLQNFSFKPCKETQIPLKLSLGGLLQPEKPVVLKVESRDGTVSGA
CYP3A4, sequence (P08684 whole entry): as above
CYP2C9, sequence (P11712 whole entry): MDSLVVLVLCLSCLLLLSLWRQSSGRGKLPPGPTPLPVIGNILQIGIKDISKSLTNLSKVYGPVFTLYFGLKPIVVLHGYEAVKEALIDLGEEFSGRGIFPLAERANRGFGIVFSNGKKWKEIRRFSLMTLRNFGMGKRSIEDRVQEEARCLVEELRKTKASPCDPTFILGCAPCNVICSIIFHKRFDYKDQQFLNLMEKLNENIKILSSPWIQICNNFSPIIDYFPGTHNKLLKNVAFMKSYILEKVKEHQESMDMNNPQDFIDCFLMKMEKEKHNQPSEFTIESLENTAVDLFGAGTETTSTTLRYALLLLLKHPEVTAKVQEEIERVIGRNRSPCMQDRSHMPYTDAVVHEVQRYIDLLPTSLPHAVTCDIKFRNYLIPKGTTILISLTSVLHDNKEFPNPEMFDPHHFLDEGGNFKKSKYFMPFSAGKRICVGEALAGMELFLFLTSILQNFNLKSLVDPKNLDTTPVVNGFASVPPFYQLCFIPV

The half-life is how long it takes for the measured level to halve. One may read the IC50 as the concentration needed to halve the response being measured. In general, inhibition refers to the change of the read-out against control, counted positive when it falls. For the compound `N#Cc1ccc(-c2csc(C(=O)Nc3ccc(C(F)(F)F)cc3)n2)cc1`, in data set [1], the half-life at 100 µM is more than 2 h. Also, the IC50 at 48 h in [2] is more than 20000 nM; in data set [19], more than 40000 nM. For the same compound, the remaining at 0.25 h, 100 µM in data set [3] is 94.2%. The inhibition at 10 min, 10 µM in [4] stood at 17.4%. In addition, the Ratio IC50 in data set [5] is 1550; in [10], more than 200000. For the same compound, the IC50 was found to be 2970 nM in data set [6] and 0.05 nM in [21]. Moreover, the remaining at 5 min in data set [7] came to 93.1%. Besides, the values for the inhibition at 5 min, 10 µM in data set [8] and in [22] were 77.1% and 33.6%, respectively. Moreover, the remaining at 1 h in data set [9] is 54.3%. The remaining at 0.25 h in [11] stood at 80.4%. In data set [12], the remaining at 0 min, 100 µM came to 100%. For the same compound, the inhibition at 0.5 h, 10 µM in data set [13] was found to be 60.8%. Besides, in data set [14], the remaining at 2 h, 100 µM stood at 93.4%. Moreover, in [15], the remaining at 1 h, 100 µM was 100%. The remaining at 5 min, 100 µM in data set [16] worked out at 99%. Besides, in [17], the Activity result was “Dose-dependent-effect”. In addition, the remaining at 0.5 h, 100 µM in data set [18] came to 110%. For the same compound, in [20], the remaining at 0.5 h is 72.5%.

Take `O=C(Nc1cc(Cl)cc(Cl)c1)c1nc(-c2cccc(Cl)c2)cs1`: the half-life at 100 µM in [1] was more than 2 h. The IC50 at 48 h is more than 20000 nM in data set [2] and more than 40000 nM in data set [19]. Moreover, the remaining at 0.25 h, 100 µM in [3] was found to be 104%. Also, in data set [4], the inhibition at 10 min, 10 µM amounted to 2.21%. In addition, the Ratio IC50 in [5] was more than 67500; in [10], more than 54000. Also, the IC50 was more than 10000 nM in data set [6] and 1.48 nM in data set [21]. Besides, the remaining at 5 min in [7] came to 99.5%. Also, the results for the inhibition at 5 min, 10 µM in [8] and in [22] were 0.94% and 15.7%, respectively. The remaining at 1 h in [9] was determined as 96.6%. For the same compound, in [11], the remaining at 0.25 h was 102%. Further, the remaining at 0 min, 100 µM in data set [12] was 100%. The inhibition at 0.5 h, 10 µM in data set [13] amounted to 7.73%. Further, the remaining at 2 h, 100 µM in data set [14] stood at 93.9%. Moreover, the remaining at 1 h, 100 µM in data set [15] is 96.1%. Moreover, the remaining at 5 min, 100 µM in [16] was 87.1%. The Activity result in [17] was “Dose-dependent-effect”. Further, the remaining at 0.5 h, 100 µM in data set [18] is 106%. In data set [20], the remaining at 0.5 h came to 98.2%.

With `N#Cc1ccc(-c2csc(C(=O)Nc3cc(Cl)cc(Cl)c3)n2)cc1`, the half-life at 100 µM in data set [1] is more than 2 h. Besides, the IC50 at 48 h in [2] is more than 20000 nM; in data set [19] it was more than 40000 nM. Moreover, in [3], the remaining at 0.25 h, 100 µM was 102%. In [4], the inhibition at 10 min, 10 µM was determined as 2.21%. Also, the Ratio IC50 in [5] and in data set [10] was more than 56400 each time. For the same compound, the 50% inhibitory concentration (IC50) in data set [6] was determined as 1550 nM; in data set [21] it was 1.77 nM. The remaining at 5 min in [7] was 93.8%. Moreover, the inhibition at 5 min, 10 µM in [8] is 86.6%; in data set [22], 0%. Further, the remaining at 1 h in [9] came out at 97.1%. Moreover, the remaining at 0.25 h in [11] was 101%. The remaining at 0 min, 100 µM in data set [12] is 100%. Besides, in data set [13], the inhibition at 0.5 h, 10 µM is 1.45%. Moreover, the remaining at 2 h, 100 µM in [14] came to 103%. Moreover, the remaining at 1 h, 100 µM in data set [15] was found to be 114%. In addition, in data set [16], the remaining at 5 min, 100 µM amounted to 106%. Further, in data set [17], the Activity result was “Dose-dependent-effect; Compound Showed Robust Reversal Activity”. Moreover, the remaining at 0.5 h, 100 µM in data set [18] came to 116%. Besides, the remaining at 0.5 h in data set [20] was 102%.
